Test results from patent US11787785B2 (NOVARTIS AG, priority 2021, dated 2023).

Molecular target: T1, WIZ protein (HiBit-WIZ fusion protein) (Homo sapiens, UniProt O95785+Q96SW2)
T1 construct: expressed in transfected cells
Experiment: Quantification of WIZ protein levels in HiBit tag fusion protein assay (WIZ HiBit assay in 293T cells)
Format: cell-based
Settings: for Dmax at 25 µM / remaining activity at 25 µM: HEK-293T, 293T cells; for Dmax at 25 µM: 100 − Amax, read-out: % degradation of WIZ (100 − Amax); for remaining activity at 25 µM: DMSO-normalized, curve-fitted percentage of WIZ-HiBit remaining at 25 uM, read-out: WIZ Amax; for DC50: WIZ HiBit assay in 293T cells, 10-point, 5-fold dose response, highest concentration 25 μM, about 18 hours, read-out: WIZ AC50
Outline: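 Luminescence after LgBit complementation quantified remaining HiBit-WIZ in lysates of single-copy stable 293T lines. Cells dosed ~18 h at 37 °C with 10-point, 5-fold dilutions (highest 25 μM); DMSO set to 100%, fitted curve gave % remaining at 25 μM (Amax).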

T1 sequence (O95785 whole entry, the tested form may be a part): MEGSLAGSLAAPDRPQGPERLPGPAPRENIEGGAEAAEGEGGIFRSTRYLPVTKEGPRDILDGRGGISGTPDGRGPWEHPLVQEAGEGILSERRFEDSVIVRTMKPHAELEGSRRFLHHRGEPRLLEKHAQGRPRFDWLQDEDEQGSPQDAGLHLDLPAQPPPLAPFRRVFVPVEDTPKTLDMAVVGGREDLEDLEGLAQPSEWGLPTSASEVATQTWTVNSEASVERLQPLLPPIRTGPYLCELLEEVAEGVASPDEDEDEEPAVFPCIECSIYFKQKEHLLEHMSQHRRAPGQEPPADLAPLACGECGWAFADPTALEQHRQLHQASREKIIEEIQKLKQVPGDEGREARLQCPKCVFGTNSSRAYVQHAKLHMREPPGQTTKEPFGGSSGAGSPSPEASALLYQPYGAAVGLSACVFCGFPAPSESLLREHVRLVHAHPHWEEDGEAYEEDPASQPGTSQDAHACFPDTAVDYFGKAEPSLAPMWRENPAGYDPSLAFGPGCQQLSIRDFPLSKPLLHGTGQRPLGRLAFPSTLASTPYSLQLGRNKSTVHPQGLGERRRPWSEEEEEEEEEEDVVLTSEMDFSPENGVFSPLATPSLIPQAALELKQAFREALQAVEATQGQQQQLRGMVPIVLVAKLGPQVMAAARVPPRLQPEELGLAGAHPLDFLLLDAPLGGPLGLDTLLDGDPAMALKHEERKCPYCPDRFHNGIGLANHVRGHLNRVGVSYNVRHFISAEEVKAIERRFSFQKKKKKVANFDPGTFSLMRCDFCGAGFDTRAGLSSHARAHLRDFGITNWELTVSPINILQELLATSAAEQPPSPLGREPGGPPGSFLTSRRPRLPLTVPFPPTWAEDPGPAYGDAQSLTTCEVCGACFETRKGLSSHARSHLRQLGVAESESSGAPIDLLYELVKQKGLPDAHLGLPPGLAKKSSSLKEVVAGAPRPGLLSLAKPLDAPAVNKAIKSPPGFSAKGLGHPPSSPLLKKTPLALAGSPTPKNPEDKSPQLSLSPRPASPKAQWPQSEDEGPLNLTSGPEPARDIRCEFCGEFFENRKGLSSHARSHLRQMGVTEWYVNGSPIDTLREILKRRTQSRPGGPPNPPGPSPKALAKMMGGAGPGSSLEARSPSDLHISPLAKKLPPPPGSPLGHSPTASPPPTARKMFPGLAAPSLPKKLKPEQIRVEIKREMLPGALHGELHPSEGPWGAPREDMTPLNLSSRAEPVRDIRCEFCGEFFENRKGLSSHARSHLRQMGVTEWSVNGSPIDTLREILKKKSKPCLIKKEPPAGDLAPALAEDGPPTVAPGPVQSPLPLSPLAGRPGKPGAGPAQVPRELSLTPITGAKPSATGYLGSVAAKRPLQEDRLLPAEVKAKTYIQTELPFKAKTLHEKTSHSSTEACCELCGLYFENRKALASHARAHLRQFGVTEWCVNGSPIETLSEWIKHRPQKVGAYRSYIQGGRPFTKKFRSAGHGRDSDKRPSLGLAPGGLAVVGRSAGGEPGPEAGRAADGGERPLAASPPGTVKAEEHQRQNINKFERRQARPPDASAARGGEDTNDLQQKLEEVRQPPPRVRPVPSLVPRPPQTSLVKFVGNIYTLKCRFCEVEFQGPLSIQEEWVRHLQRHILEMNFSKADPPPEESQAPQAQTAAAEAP
T1 sequence (Q96SW2 whole entry, the tested form may be a part): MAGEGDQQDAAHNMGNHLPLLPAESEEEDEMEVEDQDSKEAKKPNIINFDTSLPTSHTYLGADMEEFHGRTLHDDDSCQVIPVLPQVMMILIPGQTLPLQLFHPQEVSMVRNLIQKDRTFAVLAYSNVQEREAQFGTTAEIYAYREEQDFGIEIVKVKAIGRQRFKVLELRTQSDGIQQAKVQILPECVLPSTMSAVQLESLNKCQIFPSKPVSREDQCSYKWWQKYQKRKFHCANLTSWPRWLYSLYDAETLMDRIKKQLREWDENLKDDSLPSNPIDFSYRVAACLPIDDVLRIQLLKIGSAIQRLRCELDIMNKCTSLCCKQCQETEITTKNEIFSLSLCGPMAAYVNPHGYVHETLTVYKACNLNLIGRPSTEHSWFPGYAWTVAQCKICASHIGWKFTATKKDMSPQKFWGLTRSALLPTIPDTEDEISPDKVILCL
T1 sequence (Q16531 whole entry partner, the tested form may be a part): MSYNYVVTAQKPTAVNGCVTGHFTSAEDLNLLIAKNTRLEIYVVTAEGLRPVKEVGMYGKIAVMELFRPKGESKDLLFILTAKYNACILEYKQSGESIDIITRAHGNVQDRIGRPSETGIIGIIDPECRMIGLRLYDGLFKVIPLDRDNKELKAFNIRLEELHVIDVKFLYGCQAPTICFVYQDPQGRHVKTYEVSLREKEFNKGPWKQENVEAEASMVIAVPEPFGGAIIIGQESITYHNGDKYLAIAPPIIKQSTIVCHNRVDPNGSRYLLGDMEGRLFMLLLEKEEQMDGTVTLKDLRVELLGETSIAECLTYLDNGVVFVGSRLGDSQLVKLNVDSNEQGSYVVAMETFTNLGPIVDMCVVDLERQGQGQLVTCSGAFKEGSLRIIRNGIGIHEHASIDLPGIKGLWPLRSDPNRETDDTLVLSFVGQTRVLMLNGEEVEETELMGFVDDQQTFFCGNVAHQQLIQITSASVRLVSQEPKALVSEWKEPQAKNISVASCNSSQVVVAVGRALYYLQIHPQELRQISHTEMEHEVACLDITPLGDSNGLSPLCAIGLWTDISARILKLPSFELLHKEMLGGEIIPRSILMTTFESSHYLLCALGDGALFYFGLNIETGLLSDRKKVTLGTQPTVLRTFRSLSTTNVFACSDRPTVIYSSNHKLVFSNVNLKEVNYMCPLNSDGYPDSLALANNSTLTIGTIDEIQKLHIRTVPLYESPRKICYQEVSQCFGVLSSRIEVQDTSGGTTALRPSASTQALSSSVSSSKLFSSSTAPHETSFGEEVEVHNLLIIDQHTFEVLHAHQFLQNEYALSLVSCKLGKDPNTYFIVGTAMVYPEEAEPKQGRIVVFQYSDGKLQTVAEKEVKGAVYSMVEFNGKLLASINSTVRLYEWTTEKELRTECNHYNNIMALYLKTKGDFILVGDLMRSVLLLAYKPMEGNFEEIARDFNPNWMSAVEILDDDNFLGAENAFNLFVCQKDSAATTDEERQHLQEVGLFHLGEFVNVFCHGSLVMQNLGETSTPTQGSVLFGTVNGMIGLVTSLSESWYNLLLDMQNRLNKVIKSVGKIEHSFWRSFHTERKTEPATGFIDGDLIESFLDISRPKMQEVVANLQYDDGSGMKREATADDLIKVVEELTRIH

Compound | Dmax at 25 µM | remaining activity at 25 µM | DC50
CC(C)CN1CC(Cc2ccn3ncc(N4CCC(=O)NC4=O)c3c2)C1 [Example 134, 1-(5-((1-isobutylazetidin-3-yl)methyl)pyrazolo[1,5-a]pyridin-3-yl)dihydropyrimidine-2,4(1H,3H)-dione] | 27% | 73% | 4300 nM
O=C1CCN(c2cnn3ccc(CN4CCN(Cc5cscn5)CC4)cc23)C(=O)N1 [Example 197, 1-(5-((4-(thiazol-4-ylmethyl)piperazin-1-yl)methyl)pyrazolo[1,5-a]pyridin-3-yl)dihydropyrimidine-2,4(1H,3H)-dione] | 40% | 60% | 1140 nM
O=C1CCN(c2cnn3ccc(CN4CCN(CC5CCCCC5)C(=O)C4)cc23)C(=O)N1 [Example 242, 1-(5-((4-(cyclohexylmethyl)-3-oxopiperazin-1-yl)methyl)pyrazolo[1,5-a]pyridin-3-yl)dihydropyrimidine-2,4(1H,3H)-dione] | 7% | 93% | 1600 nM
O=C1CCN(c2cnn3ccc(CN4CCN(Cc5cccc(F)c5)CC4)cc23)C(=O)N1 [Example 170] | 53% | 47% | 228 nM
COc1cn(-c2cnn3ccc(CN4CCN(CC(C)C)[C@@H](C)C4)cc23)c(=O)[nH]c1=O [Example 360, (S)-1-(5-((4-isobutyl-3-methylpiperazin-1-yl)methyl)pyrazolo[1,5-a]pyridin-3-yl)-5-methoxypyrimidine-2,4(1H,3H)-dione] | 24% | 76% | > 25000 nM
O=C1CCN(c2cnn3ccc(CN4CCN(CCC5CCCCC5)C(=O)C4)cc23)C(=O)N1 [Example 243, 1-(5-((4-(2-cyclohexylethyl)-3-oxopiperazin-1-yl)methyl)pyrazolo[1,5-a]pyridin-3-yl)dihydropyrimidine-2,4(1H,3H)-dione] | 13% | 87% | 3060 nM
O=C1CCN(c2cnn3ccc(CN4CCN5CCCC[C@@H]5C4)cc23)C(=O)N1 [Example 313, (R)-1-(5-((octahydro-2H-pyrido[1,2-a]pyrazin-2-yl)methyl)pyrazolo[1,5-a]pyridin-3-yl)dihydropyrimidine-2,4(1H,3H)-dione] | 70% | 30% | 85 nM
C[C@H]1C[C@H](Cc2ccn3ncc(N4CCC(=O)NC4=O)c3c2)CCN1C1COC1 [Example 279, 1-(5-(((2S,4R)-2-methyl-1-(oxetan-3-yl)piperidin-4-yl)methyl)pyrazolo[1,5-a]pyridin-3-yl)dihydropyrimidine-2,4(1H,3H)-dione] | 91% | 9% | 26 nM

Next, values leading:

Dmax at 25 µM | remaining activity at 25 µM | DC50 | Compound
62% | 38% | 3990 nM | O=C1CCN(c2cnn3ccc(CC4CCN(C(=O)Oc5ccccc5)CC4)cc23)C(=O)N1 [Example 94]
73% | 27% | 31 nM | O=C1CCN(c2cnn3ccc(CC4CCN(Cc5cncc(F)c5)CC4)cc23)C(=O)N1 [Example 33, 1-(5-((1-((5-fluoropyridin-3-yl)methyl)piperidin-4-yl)methyl)pyrazolo[1,5-a]pyridin-3-yl)dihydropyrimidine-2,4(1H,3H)-dione]
84% | 16% | 18 nM | O=C1CCN(c2cnn3ccc(CC4CCN(CCC5CCCC5)CC4)cc23)C(=O)N1 [Example 16, 1-(5-((1-(2-cyclopentylethyl)piperidin-4-yl)methyl)pyrazolo[1,5-a]pyridin-3-yl)dihydropyrimidine-2,4(1H,3H)-dione]
72% | 28% | 446 nM | CC(C)N1CCC(Cc2ccn3ncc(N4CCC(=O)NC4=O)c3c2)CC1 [Example 37, 1-(5-((1-isopropylpiperidin-4-yl)methyl)pyrazolo[1,5-a]pyridin-3-yl)dihydropyrimidine-2,4(1H,3H)-dione]
